From patent publication US11879140B2, “P21 mRNA targeting DNAzymes” (1E Therapeutics Ltd., priority 2020, dated 2024)

Key:
human p21 mRNA = test: In vitro cleavage assay of human p21 mRNA; type: biochemical; settings: in vitro cleavage of p21 mRNA (SEQ ID NO: 1); RNA substrate 500 nM, 37° C. 60 min, agarose gel
Text: Total RNA was isolates from senescent IMR-90 cells using Nucleospin® RNA kit (Macherey-Nagel™). cDNA was synthesized with gene-specific reverse primers using M-MLV Reverse Transcriptase (Promega), according to the manufacturer's protocol. To generate template for in vitro transcription (IVT) reaction, the cDNA was PCR amplified using KAPA Taq EXtra HotStart® ReadyMix™ PCR Kit (R&D). PCR product was run on 1.5% agarose TAE gel, the correct band size was cut and DNA was cleaned using Wizard® SV Gel and PCR Clean-Up System kit (Promega). IVT was performed using HiScribe™ T7 High Yield RNA Synthesis Kit (NEB). Samples were then treated with DNase I (New England Biolabs) and incubated for 15 minutes at 37° C. IVT product was run on 1.5% agarose TBE gel, the correct band size was cut and RNA was cleaned using QIAquick® Gel Extraction Kit (Qiagen). See primer sequences in Table 1, below.
RNA substrate was diluted with Molecular Biology Grade Water (Biological Industries) and used in in vitro cleavage assay. A 20 μl reaction system comprising RNA substrate (final concentration 500 nM), 2 μl 10× reaction buffer (50 mM Tris-HCl pH 7.4, 100 mM NaCl, 10 mM MgCl2) and 1 μl DNAzyme (10 μM) (as depicted in Table 2, below) was mixed. Reactions were incubated at 37° C. for 60 min. 2×RNA L.D. (Thermo Fisher) was added to each sample. Samples were heated at 70° C. for 30 sec, centrifuged and loaded onto 1.5% agarose TBE gels. Quantification was performed using Image Lab software (Bio Rad).

[1] = tested on: senescent human IMR-90 fibroblast cells; type: cell-based; settings: increasing concentrations (FIGS. 6A-C, 12A-C)
Summary of the method: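 Senescence was induced by etoposide at […] for 48 h, with the phenotype present 7 days later, or by H-RasG12 or long-term passaging. Cells grown at 5% oxygen were transfected with DNAzymes by Lipofectamine 2000, and survival was scored 3-6 days later by PrestoBlue relative to Lipofectamine-only control.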

[2] = tested on: senescent epithelial kidney cells (REC); test: Viability assay on REC cells; type: cell-based, human; settings: FIG. 6D
Experimental: (§1) Human IMR-90, BJ, WI-38 fibroblasts and REC epithelial cells were obtained from ATCC and grown at 5% oxygen. IMR-90 and REC cells were maintained in DMEM medium comprising 100 units per ml of penicillin, […] of streptomycin and 10% fetal bovine serum. BJ and WI-38 cells were maintained in EMEM medium comprising 100 units per ml of penicillin, […] of streptomycin, 10% fetal bovine serum, 1% Pyruvate, 1% L-Glutamine, mLFs were isolated according to standard procedures [Seluanov, A., et al. J Vis Exp (2010) (44):2033] and grown at 5% oxygen. Cells were maintained in EMEM medium comprising 100 units per ml of penicillin, […] of streptomycin and 15% fetal bovine serum.
(§2) DNA damage induced senescence (DIS) was induced by etoposide treatment (E1383, Sigma) at a concentration of […] for IMR-90, BJ, and WI-38, 16 μM for mLF and 12.5 μM for REC for a duration of 48 hours. Cells acquired the senescence phenotype 7 days post treatment (determined by SA-beta-gal staining).
(§3) Primary target cells (IMR-90, BJ, […]) were plated in 24-well plates at 100,000 cells per well. Cells were transfected with different concentrations of DNAzymes (as depicted in Table 2, below) using Lipofectamine™ 2000 (Invitrogen) according to manufacturer instructions. […]

[3] = tested on: senescent lung fibroblasts (WI-38); test: Viability assay on WI-38 cells; type: cell-based, human; settings: FIG. 6D
Experimental: as §1, §2, §3

[4] = tested on: Bleomycin-induced pulmonary fibrosis model mice; test: Bleomycin-induced idiopathic pulmonary fibrosis (IPF) mouse model; type: in vivo
Experimental: Total RNA from lung samples (post-caval lobe) was extracted using RNAiso (Takara Bio. Japan) according to manufacturer protocol. Reverse transcription was performed using MMLV-RT (Invitrogen). Real-time PCR was performed using TB Green™ Premix Ex Taq™ II (Takara Bio). To calculate the relative mRNA expression level, the expression of each gene (Collagen Type 1) were be normalized to that of reference gene 36B4 (gene symbol: Rplp0).
C57/B6 mice were induced to develop pulmonary fibrosis by a single intra-tracheal administration of Bleomycin hydrochloride (Nippon Kayaku. Japan) in saline at a dose of 3.0 mg/kg, in a volume of 50 μL per animal using Microsprayer® (Penn-Century. USA). Mice that served as the Sham control group were intratracheally administered with saline, instead of the Bleomycin. Mice were initially randomized based on body weight before Bleomycin instillation. At second randomization, Bleomycin-induced pulmonary fibrosis model mice were divided based on the body weight changes on the day before the start of treatment at Day 7. DNAzyme treatment was performed intranasally with 200 μg of DNAzyme resuspended in 50 μL PBS per treatment. PBS intra-nasal treatment served as control. Mice were treated daily following Bleomycin instillation with either DNAzyme or control from day 1 to 20 (prophylactic regimen) or from day 7 to 20 (therapeutic regimen). Body weight, viability, clinical signs and behavior were monitored daily. Mice were sacrificed three weeks following Bleomycin instillation.
Right lung tissues prefixed in 10% neutral buffered formalin were embedded in paraffin and sectioned at 4 μm.
For immunohistochemistry (IHC) staining, sections were subjected to heat induced epitope retrieval (HIER) Following HIER, the sections were incubated rabbit monoclonal anti-p21 antibody [EPR18021] (Abcam) 1:2000 or rabbit monoclonal anti-α-SMA antibody [EPR5368] (Abcam) 1:2000. Section bound primary antibody was detected employing horseradish peroxidase labeled anti-rabbit IgG polymeric reagent.
For Masson's Trichrome staining, the sections were deparaffinized and rehydrated, followed by re-fixation with Bouin's solution for 15 minutes. The sections were stained in Weigert's iron Hematoxylin working solution (Sigma-Aldrich), Biebrich scarlet-Acid fuchsin solution (Sigma-Aldrich), Phosphotungstic/phosphomolybdic Acid solution, Aniline blue solution and 1% Acetic Acid solution (Sigma-Aldrich). For quantitative analysis of lung fibrosis area, bright field images of Masson's Trichrome-stained sections were randomly captured using a digital camera (DFC295; Leica, Germany) at 100-fold magnification, and the subpleural regions in 20 fields/mouse were evaluated according to the criteria for grading lung fibrosis [Ashcroft. T. et al., Simple method of estimating severity of pulmonary fibrosis on a numerical scale. J Clin. Pathol. (1988) 41: 467-470]. All sections were blindly analyzed by an experimenter.
Digital images were analyzed by a custom MATLAB algorithm, using Image Processing Toolbox. First, a binary image was calculated, in order to distinguish background pixels from the lobe pixels. Next, a morphological close operation on the image was preformed, fill of the holes, and extraction of the largest connected component, in order to detect all lobe area, including alveoli. The density of the lobe was defined by the ratio between the stained pixels to the total pixels in the lobe area. For Masson's Trichrome staining, blue pixels were detected and separated from purple staining by specifying RGB (red, green, and blue) constraints. The Collagen percentage in each image was defined by the ratio between the blue pixels to the total pixels in the lobe area.
For p21 staining, an image segmentation algorithm was performed to identify all nuclei in image. Next, cells positive to p21 were detected by RGB and size constraints. […]

mouse p21 mRNA = test: In vitro cleavage of mouse p21 mRNA; type: biochemical; settings: in vitro cleavage of mouse p21 mRNA (SEQ ID NO: 3)

| Substance | Validated cleavage (human p21 mRNA) | selectivity of killing, senescent versus growing IMR-90 cells [1] | elimination of senescent but not growing REC cells [2] | elimination of senescent but not growing WI-38 cells [3] | oxygen saturation in the blood ([4]; FIG. 14A) | number of p21 expressing cells in the lung tissue ([4]; both treatment regimens, IHC day 21 (FIG. 14B)) | Hydroxyproline levels ([4]; left lung, day 21, therapeutic and preventative (FIG. 14E)) | Ashcroft fibrosis score ([4]; lung sections day 21, compared to bleomycin treated group, p=0.0206 (FIG. 10B)) | survival rate ([4]; over 21 days, both therapeutic and preventative regimens, vehicle group 75% (FIG. 10D)) | expression levels of senescence related genes and SASP factors ([4]; post caval lobe, day 21 (FIG. 14C)) | lung tissue density ([4]; therapeutic and preventive groups (FIG. 14F)) | collagen levels (Masson's Trichrome) ([4]; therapeutic and preventive regimens (FIG. 14D)) | Validated cleavage (mouse p21 mRNA) |
| --- | --- | --- | --- | --- | --- | --- | --- | --- | --- | --- | --- | --- | --- |
| DNAzyme 1114: SEQ ID NO: 40: AGGAGAACAggctagctacaacgaGGGAUGAGG (DNA AGGAGAACAGGCTAGCTACAACGAGGGAUGAGG; DNA, backbone, methylation of C and T or U not given here) | validated for mediating cleavage of p21 mRNA | maintained over a large range of concentrations | effectively eliminated | effectively eliminated |  |  |  |  |  |  |  |  |  |
| Dz_639: targets mouse p21; SEQ ID NO: 85: GGCCGAAGAggctagctacaacgaGGGGAAGAG; used in IPF model (GGCCGAAGAGGCTAGCTACAACGAGGGGAAGAG; chemistry not given here) |  |  |  |  | significantly elevated | reduction | reduced | lower | 100% | significantly reduced | reduced | significantly reduced | effective |
